Assay results from ChEMBL document CHEMBL1201862, “PubChem BioAssay data set” (2004).
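Cultured in 96-well plates, cells were exposed to test compound for 48 hours across five concentrations. GI50 is the concentration that inhibits growth by half.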 Activity calls are given as the source filed them. Cut-off read from the data, not from the text of the source: active = GI50 up to about 1.1 µM and inactive = higher.

Key:
Experiment in all cases: NCI tumour cell line growth inhibition, 48 h
NCI/ADR-RES = tested on: NCI/ADR-RES
SN12C = tested on: SN12C
UACC-257 = tested on: UACC-257
MCF7 = tested on: MCF7
SK-OV-3 = tested on: SK-OV-3
K562 = tested on: K562
UACC-62 = tested on: UACC-62
RXF 393 = tested on: RXF 393
HT-29 = tested on: HT-29
SF-268 = tested on: SF-268
TK-10 = tested on: TK-10
Malme-3M = tested on: Malme-3M
NCI-H522 = tested on: NCI-H522
OVCAR-8 = tested on: OVCAR-8
SK-MEL-28 = tested on: SK-MEL-28
HCC 2998 = tested on: HCC 2998
MDA-MB-435 = tested on: MDA-MB-435
SW-620 = tested on: SW-620
RPMI-8226 = tested on: RPMI-8226
SNB-75 = tested on: SNB-75

Measured: GI50

CNC(=O)OC(C)CN1c2ccccc2Sc2ccccc21 (centres undefined)
inactive: NCI/ADR-RES 76 µM | SN12C > 100 µM | UACC-257 > 100 µM | MCF7 > 100 µM | SK-OV-3 > 100 µM | K562 63.7 µM | UACC-62 > 100 µM | RXF 393 36.2 µM | HT-29 80 µM | SF-268 > 100 µM | TK-10 > 100 µM | Malme-3M > 100 µM | NCI-H522 > 100 µM | OVCAR-8 > 100 µM | SK-MEL-28 > 100 µM | HCC 2998 > 100 µM | MDA-MB-435 80.2 µM | SW-620 > 100 µM

COc1cc(/C=N\N(C)C)cc(/C=N/N(C)C)c1O
inactive: NCI/ADR-RES 25.4 µM | SN12C 14.4 µM | UACC-257 28.6 µM | MCF7 > 100 µM | SK-OV-3 15.5 µM | RPMI-8226 19.6 µM | UACC-62 28.1 µM | RXF 393 43.1 µM | HT-29 10.6 µM | SF-268 38.5 µM | TK-10 55.7 µM | Malme-3M 10.8 µM | NCI-H522 65.9 µM | SK-MEL-28 19.3 µM | MDA-MB-435 25.9 µM | SW-620 46.7 µM

O=C(NCCN1CCOCC1)c1ccc(I)cc1
inactive: NCI/ADR-RES > 100 µM | SN12C > 100 µM | MCF7 > 100 µM | SK-OV-3 > 100 µM | K562 > 100 µM | RPMI-8226 > 100 µM | UACC-62 > 100 µM | HT-29 > 100 µM | SF-268 > 100 µM | TK-10 > 100 µM | OVCAR-8 > 100 µM | SK-MEL-28 > 100 µM | HCC 2998 > 100 µM | SNB-75 > 100 µM | SW-620 > 100 µM

COC(=O)/C=C/[C@@H]1[C@H](C)N1S(=O)(=O)c1ccc(C)cc1 (some centres undefined)
inactive: NCI/ADR-RES > 100 µM | SN12C > 100 µM | UACC-257 > 100 µM | MCF7 > 100 µM | SK-OV-3 > 100 µM | K562 > 100 µM | RPMI-8226 > 100 µM | UACC-62 > 100 µM | RXF 393 > 100 µM | HT-29 > 100 µM | SF-268 > 100 µM | TK-10 > 100 µM | Malme-3M > 100 µM | NCI-H522 > 100 µM | OVCAR-8 > 100 µM | SK-MEL-28 > 100 µM | HCC 2998 > 100 µM | MDA-MB-435 > 100 µM | SW-620 > 100 µM

COc1ccc(NC(=O)C(=O)C2CNC(=O)NC2=O)c(OC)c1 (centres undefined)
inactive: SN12C > 100 µM | UACC-257 > 100 µM | SK-OV-3 > 100 µM | K562 > 100 µM | RPMI-8226 > 100 µM | UACC-62 > 100 µM | RXF 393 > 100 µM | HT-29 > 100 µM | SF-268 > 100 µM | TK-10 > 100 µM | Malme-3M > 100 µM | NCI-H522 > 100 µM | OVCAR-8 > 100 µM | SK-MEL-28 > 100 µM | HCC 2998 > 100 µM | SNB-75 > 100 µM | SW-620 > 100 µM

COC(=O)CNC(=O)C(CSC(=O)OCC1c2ccccc2-c2ccccc21)NC(=O)CCC(NC(=O)OCC1c2ccccc2-c2ccccc21)C(=O)OC (centres undefined)
inactive: NCI/ADR-RES 41 µM | SN12C > 100 µM | UACC-257 32.5 µM | MCF7 18.5 µM | SK-OV-3 30.3 µM | K562 28.7 µM | RPMI-8226 23.1 µM | RXF 393 16.8 µM | SF-268 21.3 µM | TK-10 36.7 µM | Malme-3M 25.7 µM | NCI-H522 4.65 µM | OVCAR-8 16.8 µM | SK-MEL-28 38.1 µM | HCC 2998 21.2 µM | MDA-MB-435 25.7 µM | SW-620 55.2 µM

CN(C)c1ccc2oc(=O)c3ccccc3c2c1
inactive: SN12C > 100 µM | UACC-257 > 100 µM | K562 > 100 µM | RPMI-8226 > 100 µM | UACC-62 99.8 µM | RXF 393 31.5 µM | HT-29 > 100 µM | SF-268 28.6 µM | TK-10 39.7 µM | Malme-3M > 100 µM | NCI-H522 55.8 µM | OVCAR-8 > 100 µM | SK-MEL-28 > 100 µM | HCC 2998 > 100 µM | MDA-MB-435 > 100 µM | SNB-75 27.5 µM | SW-620 > 100 µM

N#CN1C2CCC1CC(=O)C2
inactive: NCI/ADR-RES > 100 µM | SN12C > 100 µM | UACC-257 > 100 µM | MCF7 > 100 µM | SK-OV-3 > 100 µM | K562 > 100 µM | RPMI-8226 > 100 µM | UACC-62 > 100 µM | HT-29 > 100 µM | SF-268 > 100 µM | TK-10 > 100 µM | Malme-3M > 100 µM | NCI-H522 > 100 µM | OVCAR-8 > 100 µM | SK-MEL-28 > 100 µM | HCC 2998 > 100 µM | MDA-MB-435 > 100 µM | SNB-75 > 100 µM | SW-620 > 100 µM

CC1=C(C)C(=O)O[C@@H]([C@](C)(O)[C@]2(O)CC[C@@]3(O)[C@@H]4C[C@H](O)[C@]5(O)[C@@H](O)C=CC(=O)[C@]5(C)[C@H]4CC[C@]23C)C1
inactive: SN12C > 100 µM | UACC-257 > 100 µM | MCF7 46.2 µM | SK-OV-3 > 100 µM | K562 67.3 µM | RPMI-8226 49.9 µM | UACC-62 47.6 µM | RXF 393 > 100 µM | HT-29 86.3 µM | SF-268 > 100 µM | TK-10 > 100 µM | Malme-3M > 100 µM | NCI-H522 42.3 µM | OVCAR-8 > 100 µM | SK-MEL-28 > 100 µM | HCC 2998 > 100 µM | MDA-MB-435 87.9 µM | SNB-75 37.2 µM | SW-620 > 100 µM

Cc1ccc(C(=O)N(C2CCCCC2)C2CCCCC2)cc1/N=N/N(C)C
inactive: NCI/ADR-RES 19.5 µM | SN12C 15.4 µM | UACC-257 12.9 µM | MCF7 14.9 µM | SK-OV-3 17.8 µM | K562 8.28 µM | RPMI-8226 8.75 µM | UACC-62 7.78 µM | HT-29 6.08 µM | SF-268 10.8 µM | TK-10 9.82 µM | Malme-3M 16.2 µM | NCI-H522 6.01 µM | OVCAR-8 8.81 µM | SK-MEL-28 7.14 µM | HCC 2998 15.7 µM | MDA-MB-435 16.2 µM | SW-620 8.83 µM

O=C(c1cccc2cc(O)ccc12)c1cn(CCN2CCOCC2)c2ccccc12
inactive: SN12C 31.8 µM | UACC-257 21.7 µM | MCF7 25.5 µM | K562 60.1 µM | RPMI-8226 47.1 µM | UACC-62 17.7 µM | RXF 393 21.8 µM | HT-29 20.7 µM | SF-268 24 µM | TK-10 21.6 µM | Malme-3M 22.8 µM | NCI-H522 30.3 µM | OVCAR-8 31.6 µM | SK-MEL-28 42.6 µM | SW-620 22.4 µM

OCC1OC(c2cccc3cc(O)c(O)cc23)CC1O (centres undefined)
inactive: NCI/ADR-RES > 100 µM | SN12C > 100 µM | UACC-257 > 100 µM | MCF7 > 100 µM | SK-OV-3 > 100 µM | K562 > 100 µM | RPMI-8226 > 100 µM | UACC-62 > 100 µM | HT-29 > 100 µM | SF-268 93.1 µM | TK-10 > 100 µM | NCI-H522 > 100 µM | OVCAR-8 > 100 µM | SK-MEL-28 > 100 µM | HCC 2998 > 100 µM | MDA-MB-435 > 100 µM | SNB-75 > 100 µM | SW-620 > 100 µM

OC(COC(c1ccccc1)(c1ccccc1)c1ccccc1)C(O)CC1SCCS1 (centres undefined)
inactive: NCI/ADR-RES 16.3 µM | SN12C 17.7 µM | UACC-257 27 µM | MCF7 21.3 µM | SK-OV-3 19 µM | K562 13.5 µM | RPMI-8226 5.22 µM | UACC-62 17.1 µM | RXF 393 10.2 µM | HT-29 12.4 µM | SF-268 25.4 µM | TK-10 21 µM | Malme-3M 10 µM | OVCAR-8 19.3 µM | SK-MEL-28 21.5 µM | MDA-MB-435 26.2 µM | SW-620 29 µM

COc1cc(C2SCC(=O)N2c2ccc(-n3c(-c4ccccc4)nc4ccccc4c3=O)cc2)cc(OC)c1OC (centres undefined)
inactive: NCI/ADR-RES > 100 µM | SN12C > 100 µM | UACC-257 > 100 µM | MCF7 > 100 µM | SK-OV-3 97.1 µM | K562 > 100 µM | RPMI-8226 > 100 µM | UACC-62 41.2 µM | HT-29 > 100 µM | SF-268 82.4 µM | TK-10 > 100 µM | NCI-H522 > 100 µM | OVCAR-8 > 100 µM | SK-MEL-28 > 100 µM | HCC 2998 > 100 µM | MDA-MB-435 > 100 µM | SW-620 > 100 µM

CC(=O)OCC1=C2C(OC(=O)C(C)C)CC3(COC(C)=O)OC3/C=C\C3(C)OC3C2OC1=O (centres undefined)
inactive: SN12C > 100 µM | UACC-257 > 100 µM | MCF7 > 100 µM | SK-OV-3 > 100 µM | K562 > 100 µM | RPMI-8226 > 100 µM | UACC-62 > 100 µM | RXF 393 > 100 µM | HT-29 > 100 µM | SF-268 > 100 µM | TK-10 > 100 µM | Malme-3M > 100 µM | OVCAR-8 > 100 µM | SK-MEL-28 > 100 µM | HCC 2998 > 100 µM | MDA-MB-435 > 100 µM | SNB-75 > 100 µM | SW-620 > 100 µM

CC1(C)[C@@H](Cn2ccc(=O)[nH]c2=O)CC[C@@]1(C)CO
inactive: NCI/ADR-RES > 100 µM | SN12C > 100 µM | UACC-257 > 100 µM | SK-OV-3 > 100 µM | K562 > 100 µM | UACC-62 > 100 µM | RXF 393 59.2 µM | SF-268 > 100 µM | TK-10 > 100 µM | SK-MEL-28 > 100 µM | HCC 2998 > 100 µM | MDA-MB-435 > 100 µM | SNB-75 > 100 µM | SW-620 > 100 µM
